Laboratory results reported in patent publication US10533231B2, “Artificial bioluminescent enzyme” (NATIONAL INSTITUTE OF ADVANCED INDUSTRIAL SCIENCE AND …, priority 2012, dated 2020).

Columns and labels:
[1] = tested on: artificial luciferase (ALuc); test: Search for assay buffer compatible with C3 (Example 2-2); type: cell-based; settings: C3 lysis; 8- and 16-minute point
Protocol: After 16-hour incubation in a CO2 incubator, 50 μL of a C3 solution was added to each well to allow for cell lysis for 20 minutes. Substrate-containing assay buffers shown in FIG. 24 were individually added simultaneously (50 μL each) to the lysate, and the relative luminescence intensities were immediately measured with an LAS-4000 (Fujifilm). After the substrate-containing assay buffers were further added, the luminescence at the 8- and 16-minute point was measured to examine the luminescence stability.

[2] = tested on: EB3 cells expressing cSimgr13; test: Stress hormone sensitivity of ES cells expressing cSimgr13 (Example 1-17); type: cell-based; settings: 10^−5 M, 20 minutes
Protocol: Novel ES cells expressing cSimgr13, which is an integrated-molecule-format bioluminescent probe containing the ALuc of Example 10 in its frame structure were established to visualize stress hormone sensitivity (FIG. 17). First, EB3 cells, which are feeder-free embryonic stem cells (ES), were cultured in a 10 cm dish, and then a pcDNA3.1 (+) vector encoding cSimgr13 was introduced into the EB3 cells. In the presence of G418, transformed cells stably expressing cSimgr13 were established.
One day after the subculturing of the transformed cells in a microslide, some of the cells in the wells were used as a control (0.1% DMSO), and the others were stimulated with 10^−5 M stress hormone (cortisol) for 20 minutes. Subsequently, after lysis, the cells were illuminated using a substrate-containing assay buffer in accordance with the protocol of luminescence assay kit produced by Promega, and the luminescence intensity was measured using an LAS-4000.

COS-7 cells [3] = test: Toxicity of STS by change in luminescence spectrum (Example 1-12); type: cell-based, monkey; settings: STS (1 μM) stimulation vs without, 10 minutes
Protocol: Using the luminescence measurement device of the present invention, the toxicity of a cell death-inducing chemical substance (STS) was measured based on changes in luminescence spectrum (see FIG. 12). First, monkey kidney-derived COS-7 cells were scattered in a commercially available microslide for cell culturing (produced by ibidi), and the cells were cultured until 90% of the microslide area was filled with the cells. The cells were transfected with a plasmid encoding a bioluminescence probe, followed by culturing for 24 hours. The cells cultured in the microslide were stimulated with or without STS (final concentration: […]) for 10 minutes.
The luminescence measurement was performed in the following manner. The microslide was washed once with an […] buffer, and a substrate-containing HBSS buffer (100 μL) was simultaneously introduced into each slide channel, and the microslide was mounted on the measurement device. After the device was covered with a mirror cap, the device was further mounted on a conventional spectrum meter (AB-1850; ATTO) (FIG. 12A). The luminescence spectrum from each channel was measured (two-minute light condensation, n=3, see FIG. 12B).

COS-7 cells [4] = test: Toxicity of STS with luminescence measurement device and luminometer (Example 1-11); type: cell-based, monkey; settings: STS 1 μM, 10 minutes, membrane-localized probe
Protocol: Using the luminescence measurement device, the toxicity of a cell death-inducing chemical substance (STS) was measured (see FIG. 11). Monkey kidney-derived COS-7 cells were scattered in a commercially available microslide for cell culturing (produced by ibidi), and the cells were cultured until 90% of the microslide area was filled with the cells. The cells were transfected with a plasmid encoding a bioluminescence probe, followed by culturing for another 24 hours. The cells cultured in the microslide were stimulated with or without STS (final concentration: 1 μM) for 10 minutes (FIG. 11B).
The luminescence measurement was performed in the following manner. The microslide was washed once with an HBSS buffer, and a substrate-containing HBSS buffer (100 μL) was simultaneously introduced into each microslide channel, and the microslide was immediately fixed to the luminescent measurement device. […] The luminescence value was measured by changing the channels and the filters (three-second light condensation, n=3, see FIG. 11C).

COS-7 cells [5] = test: Cytotoxic measurement using bioluminescent capsule containing ALuc16 (Example 1-13); type: cell-based; settings: stimulated for two minutes, capsule SEQ ID NO: 19, LAS-4000
Protocol: The cytotoxicity of a chemical substance was measured using the bioluminescent capsule (SEQ ID NO: 19) containing ALuc 16 in its frame structure (FIG. 13). First, COS-7 cells were cultured in a 6-channel microslide, and a gene encoding SEQ ID NO: 19 was introduced into the cells, followed by culturing for another 16 hours. Subsequently, the cells were stimulated for two minutes with or without the cytotoxic substance (STS), and the luminescence image showing a bioluminescence intensity difference in a substrate-containing solution was evaluated using an LAS-4000 (FujiFilm).

[6] = target: T1, integrated-molecule-format bioluminescent probe with androgen receptor (Homo sapiens, UniProt P10275); test: Effect of adding halogen ions, androgen probe (Example 2-5); type: cell-based; settings: about 100 mM
T1 construct: an androgen receptor (AR LED) was inserted therebetween; expressed in transfected cells; host or cells: COS-7
T1 sequence (P10275 669-900 limits assumed): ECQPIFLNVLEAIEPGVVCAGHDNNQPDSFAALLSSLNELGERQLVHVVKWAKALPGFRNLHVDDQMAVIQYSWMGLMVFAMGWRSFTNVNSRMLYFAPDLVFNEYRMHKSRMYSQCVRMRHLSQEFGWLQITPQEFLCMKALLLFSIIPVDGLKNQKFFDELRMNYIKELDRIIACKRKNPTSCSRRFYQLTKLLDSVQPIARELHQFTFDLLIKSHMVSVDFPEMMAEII
Protocol: After 16-hour incubation in a CO2 incubator, 50 μL of a C3 solution was added to each well to allow for cell lysis for 20 minutes.

[7] = target: estrogen receptor (ER LBD) (Homo sapiens, UniProt P03372); settings: 10^−5 M, 20 minutes, COS-7 cells with pSimer-r2, C16 one-shot buffer
[8] = Luminescent capsule probe, luminescence stability and intensity (Example 1-7); type: cell-based; settings: localized in the endoplasmic reticulum
Text: A “luminescent capsule” probe containing the artificial luciferase (ALuc) of the present invention in its frame structure was developed (FIG. 7). The basic molecular structure of the luminescent capsule of the present invention comprises an extracellular secretion signal (SP), ALuc, a suitable cargo protein (peptide), and a membrane localization signal. Because of the SP, the probe is first transferred to the endoplasmic reticulum, and then transferred from the endoplasmic reticulum to the plasma membrane. This probe is designed to finally localize in the plasma membrane by the function of MLS (FIG. 7 AB).
The luminescent capsule has the ability to localize a fluorescence protein (mPlum), other luciferases (RLuc8.6-535), and a peptide (DEVD sequence, etc.) in the plasma membrane. […] The luminescent reaction speed of the luminescent capsule after substrate injection was faster than those of other molecules (FIG. 7D). Further, the luminescent capsule containing a […] (SEQ ID NO: 19) was confirmed to have a different luminescent reaction speed according to the presence or absence of a cell death-inducing chemical substance (STS) (FIG. 7E). The luminescence stability of the luminescent capsule was also confirmed by using a microplate reader for luminescence measurement (FIG. 7F).

COS-7 cells [9] = test: Living cell imaging (Example 1-20); type: cell-based; settings: HBSS buffer containing substrate
Protocol: First, COS-7 cells were cultured in a microslide produced by ibidi. After the cells were raised to a certain level, the following genes were transferred to the cells in the channels. Channel group 1: pcDNA3.1 plasmid having a gene encoding a luminescent enzyme derived from Renilla reniformis (RLuc8.6-535); Channel group 2: pcDNA3.1 plasmid having a gene encoding A16-KDEL; and Channel group 3: pcDNA3.1 plasmid having a gene encoding a luminescent capsule based on ALuc16 (i.e., A16-MLS).
After gene transfer, culturing was performed for another 16 hours. Immediately before imaging, the medium was substituted with an HBSS buffer containing a substrate, and the luminescence image obtained after the substitution was measured using an LAS-4000 (FujiFilm).

COS-7 cells [10] = test: Luminescence image of COS-7 cell lysate on microslide (Example 1-20); type: cell-based; settings: Promega lysate and assay buffer
Protocol: Similarly, COS-7 cells were cultured in a microslide produced by ibidi. After the cells were raised to a certain level, the following genes were transferred to the cells in the channels. Channel group 1: pcDNA3.1 plasmid having a gene encoding Cypridina luciferase; Channel group 2: pcDNA3.1 plasmid having a gene encoding A16-KDEL; and Channel group 3: pcDNA3.1 plasmid having a gene encoding a luminescent capsule based on A16 (i.e., A16-MLS).
After gene transfer, culturing was performed for another 16 hours. 20 minutes before imaging, 40 μL of a lysate buffer produced by Promega was added, and the resultant was allowed to stand for 20 minutes. Further, a substrate-containing assay buffer produced by Promega was added to the medium of each channel, and the luminescence image obtained after the addition was measured using an LAS-4000 (FujiFilm).

estrogen receptor (ER LBD), sequence (P03372 311-547 limits assumed, species assumed): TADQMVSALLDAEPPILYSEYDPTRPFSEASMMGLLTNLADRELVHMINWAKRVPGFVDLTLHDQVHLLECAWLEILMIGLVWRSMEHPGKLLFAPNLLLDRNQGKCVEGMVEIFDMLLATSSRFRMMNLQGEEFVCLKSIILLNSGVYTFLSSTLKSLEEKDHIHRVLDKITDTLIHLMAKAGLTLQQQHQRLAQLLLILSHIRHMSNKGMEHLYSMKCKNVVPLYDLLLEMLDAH

bovine serum albumin [BSA]
luminescence stability with assay buffer [1]: the luminescence intensity and luminescence stability were poor

C[C@]12CCC(=O)C=C1CC[C@@H]1[C@@H]2[C@@H](O)C[C@@]2(C)[C@H]1CC[C@]2(O)C(=O)CO [cortisol]
luminescence vs control (0.1% DMSO) [2]: stronger luminescence than the control

CN[C@@H]1C[C@H]2O[C@@](C)([C@@H]1OC)n1c3ccccc3c3c4c(c5c6ccccc6n2c5c31)C(=O)NC4 [STS]
change of luminescence spectrum (COS-7 cells [3]): increase in the luminescence intensity in the full wavelength
increase of luminescence intensity (COS-7 cells [4]): about 75%
luminescence intensity with vs without cytotoxic substance (COS-7 cells [5]): two folds higher

[Br-].[K+] [KBr]
effect of halogen ion addition [6]: excellent results

4-hydroxytamoxifen [OHT]
luminescence higher than the background [7]: about 5 folds

B1: A16-KDEL: ALuc16 with KDEL, localized in the endoplasmic reticulum, SEQ ID NO: 18 (protein)
chain: MMGIKVLFALICFALVQANPTENKDDIDIVGVEGKFGTTDLETDLFTIVEDMNVISRDTDVDANRADRGRRGKLPGKKLPLEVLKELEANAQKAGCTRGCLICLSHIKCTAKMKKWLPGRCESWEGDKETGQGGIGEAIVDIPEIPGFKDLEPMEQFIAQVDLCVDCTTGCLKGLANVKCSDLLKKWLPSRCATFASKIQAQVDKIKGAGGSKDEL
modifications: KDEL ER retention signal; Synthetic KDEL-linked ALuc16
luminescence intensity [8]: poor luminescence intensity
luminescence image of living cells (COS-7 cells [9]): strong luminescence image
luminescence of cell lysate (COS-7 cells [10]): strong luminescence
